# Experimental data: patent US20250282799A1, “SUBSTITUTED PYRIDO[4,3-d]PYRIMIDINES AS KRAS MODULATORS” (Alterome Therapeutics, Inc., priority 2023, published 2025)
# Test system: KRAS G12V dependent lung adenocarcinoma cell line, NCI-H441
# Assay: Cellular pERK (Thr202/Tyr204) FRET/HTRF assay
# Format: cell-based
# Conditions: Homo sapiens, NCI-H441, cellular pERK (Thr202/Tyr204) HTRF, NCI-H441 cells
# Description: “Ras” refers to a protein in the Ras superfamily of small GTPases, such as in the Ras subfamily. […] The Ras proteins play a critical role in the regulation of cell behaviors, including proliferation, differentiation, and survival. […] KRAS G12V, G12D, and G12S variants are common in human cancers and Ras inhibitors binding in or near the Switch II pocket may provide mutant binding selectivity. RAS mutations are known to be often associated with pancreatic, colorectal and non-small-cell lung carcinomas (Lone, A. M. et al. J. Am. Chem. Soc. 2011,133, 11665-74, which is entirely incorporated herein by reference; Dillon, M. B.; Bachovchin, D. A.; Brown, S. J.; Finn, M. G.; Rosen, H.; Cravatt, B. F.; Mowen, K. A. ACS Chem. Biol. 2012, 7, 1198-204, which is entirely incorporated herein by reference; Bachovchin, D. A.; Brown, S. J.; Rosen, H.; Cravatt, B. F. Nat. Biotechnol. 2009, 27, 387-94, Ostrem, J. M.; Peters, U.; Sos, M. L.; Wells, J. A.; Shokat, K. M. Nature 2013, 503, 548-551. Ryan M. B. and Corcoran R. B, Nat. Rev Clin Onco. 2018, 11, 709-720.). Ras proteins are key members in the Ras/Raf/Mitogen-activated protein kinase (MAPK) signaling pathway. This pathway regulates a wide variety of cellular processes, including proliferation, differentiation, apoptosis, and stress responses. One way to measure the impact of an inhibitor of Ras proteins is to measure downstream phosphorylation of proteins in the MAPK pathway. The MAPK pathway includes extracellular signal-regulated kinases named ERK1 and ERK2, which are serine-threonine kinases that regulate cellular signaling under both normal and oncogenic conditions. ERK expression and hyperactivation via phosphorylation plays a major role in cancer progression and are downstream of Ras proteins. The assay used for measuring the downstream impact of Ras inhibition is the use of a highly sensitive cell-based readout of ERK phosphorylation (pERK) specifically on Threonine (Thr) 202 and Tyrosine (Tyr) 204 in a KRAS G12V dependent lung adenocarcinoma cell line, NCI-H441 (ATCC Cat #HTB-174). The assay described herein is suitable for assessing inhibition of Ras and can be tailored for any of the predominant oncogenic mutations in any isoform of Ras (e.g., KRAS, HRAS, and NRAS) by changing the cell line.
# pERK was measured using an advanced pERK assay designed for the robust and highly sensitive quantification of ERK phosphorylation on Thr202/Tyr204. This assay is intended for the simple, rapid, and direct detection of endogenous levels of ERK1/2 in cells, but only when ERK is phosphorylated at Thr202 and Tyr204 (Perkin Elmer Catalog #64AERPEH). pERK was detected in a FRET based sandwich assay format using 2 different specific antibodies, one labelled with Eu3+-Cryptate (donor) and the second with d2 (acceptor). When the dyes are in close proximity, the excitation of the donor with a light source (laser or flash lamp) triggers a Fluorescence Resonance Energy Transfer (FRET) towards the acceptor, which in turn fluoresces at a specific wavelength (665 nm). The specific signal modulates positively in proportion to p-ERK1/2 (Thr202/Tyr204). The simple mix-and-read protocol eliminates all wash steps for faster analysis and high-quality output. Briefly, cells were diluted to the desired concentration per well based on a growth curve showing ˜75% confluence within a 24-hour time period at no less than 95% viability. Cell suspension (24 μL) were added into each well of 384-well culture plate and maintained in 37° C. 5% CO2 incubator overnight prior to assay. All compounds were transferred to stock plates using TECAN (EVO200) liquid handler using DMSO as the solubilizing and dilution agent. Test compounds were transferred onto adherent cells using an Echo655 liquid handler. DMSO was employed as negative control. Cells were incubated with test compounds for 1 hr in a 37° C., 5% CO2 incubator following compound addition. […]
row,Structure (SMILES),IC50 [nM]
1,"C#Cc1c(F)ccc2cc(N)cc(-c3ncc4c(N5CCOC[C@H]6[C@H](F)[C@H]65)nc(OC[C@@]56C[C@H](C)CN5CCC65CC5)nc4c3F)c12 (single isomer, unassigned) [Example 243]",< 50
2,"[2H]C([2H])([2H])Oc1c(F)cc(F)c2cc(N)cc(-c3ncc4c(N5CCOC[C@H]6[C@H](F)[C@H]65)nc(OC[C@@]56CCCN5C/C(=C\F)C6)nc4c3F)c12 [Example 172, 6,8-difluoro-4-(8-fluoro-4-((1S,7S,8S)-8-fluoro-5-oxa-2-azabicyclo[5.1.0]octan-2-yl)-2-(((S,Z)-2-(fluoromethylene)tetrahydro-1H-pyrrolizin-7a(5H)-yl)methoxy)pyrido[4,3-d]pyrimidin-7-yl)-5-(methoxy-d3)naphthalen-2-amine]",< 50
3,"[2H]C([2H])([2H])Oc1c(F)c(F)c(F)c2cc(N)cc(-c3ncc4c(N5CCC=C[C@H]6[C@H](F)[C@H]65)nc(OC([2H])([2H])[C@@]56CCCN5C[C@H](F)C6)nc4c3F)c12 [Example 148, 6,7,8-Trifluoro-4-(8-fluoro-4-((1S,7R,8S)-8-fluoro-2-azabicyclo[5.1.0]oct-5-en-2-yl)-2-(((2R,7aS)-2-fluorotetrahydro-1H-pyrrolizin-7a(5H)-yl)methoxy-d2)pyrido[4,3-d]pyrimidin-7-yl)-5-(methoxy-d3)naphthalen-2-amine]",50 to 500
4,"C#Cc1c(F)ccc2cc(N)cc(-c3ncc4c(N5CCOC[C@H]6[C@H](F)[C@H]65)nc(OC[C@@]56CCCN5C(C)(C)[C@H](F)C6)nc4c3F)c12 [Example 262, 5-ethynyl-6-fluoro-4-(8-fluoro-2-(((2R,7aS)-2-fluoro-3,3-dimethyltetrahydro-1H-pyrrolizin-7a(5H)-yl)methoxy)-4-((1S,7S,8S)-8-fluoro-5-oxa-2-azabicyclo[5.1.0]octan-2-yl)pyrido[4,3-d]pyrimidin-7-yl)naphthalen-2-amine]",< 50

# More lines, now with the values ahead:
row,IC50 [nM],Structure (SMILES)
1,< 50,"C#Cc1c(F)ccc2cccc(-c3ncc4c(N5CCOC[C@H]6[C@H](F)[C@H]65)nc(OC[C@]56CC(=C)CN5CCC65CC5)nc4c3F)c12 [Example 166, (1S,7S,8S)-2-(7-(8-Ethynyl-7-fluoronaphthalen-1-yl)-8-fluoro-2-(((R)-6′-methylenetetrahydrospiro[cyclopropane-1,1′-pyrrolizin]-7a′(5′H)-yl)methoxy)pyrido[4,3-d]pyrimidin-4-yl)-8-fluoro-5-oxa-2-azabicyclo[5.1.0]octane]"
2,< 50,"C#Cc1c(F)ccc2cc(N)cc(-c3ncc4c(N5CCOC[C@H]6[C@H](F)[C@H]65)nc(OC[C@]56C[C@@H](F)CN5CCC6=O)nc4c3F)c12 [Example 414, (6R,7aS)-7a-(((7-(3-amino-8-ethynyl-7-fluoronaphthalen-1-yl)-8-fluoro-4-((1S,7S,8S)-8-fluoro-5-oxa-2-azabicyclo[5.1.0]octan-2-yl)pyrido[4,3-d]pyrimidin-2-yl)oxy)methyl)-6-fluorohexahydro-1H-pyrrolizin-1-one]"
3,< 50,"[2H]C([2H])(Oc1nc(N2CCOC[C@H]3[C@H](F)[C@H]32)c2cnc(-c3cc(N)cc4ccc(F)c(C#C)c34)c(F)c2n1)[C@@]12CCCN1C[C@H](CF)C2 (single isomer, unassigned) [Example 266]"
4,< 50,"C#Cc1c(F)ccc2cc(N)cc(-c3ncc4c(N5CCOC[C@H]6[C@H](F)[C@H]65)nc(OC[C@@]56CCCN5[C@H](C)[C@H](F)C6)nc4c3F)c12 [Example 277, 5-ethynyl-6-fluoro-4-(8-fluoro-2-(((2R,3R,7aS)-2-fluoro-3-methyltetrahydro-1H-pyrrolizin-7a(5H)-yl)methoxy)-4-((1S,7S,8S)-8-fluoro-5-oxa-2-azabicyclo[5.1.0]octan-2-yl)pyrido[4,3-d]pyrimidin-7-yl)naphthalen-2-amine]"

# Same assay, conditions: Homo sapiens, NCI-H441, cellular pERK HTRF, NCI-H441 (KRAS G12V) cells
row,IC50 [nM],Structure (SMILES)
1,< 50,"[2H]C([2H])(Oc1nc(N2CCCC[C@H]3[C@H](Cl)[C@H]32)c2cnc(-c3cc(N)cc4ccc(F)c(C#C)c34)c(C)c2n1)[C@@]12CCCN1C[C@H](F)C2 [Example 464, 4-(4-((1S,7R,8S)-8-chloro-2-azabicyclo[5.1.0]octan-2-yl)-2-(((2R,7aS)-2-fluorotetrahydro-1H-pyrrolizin-7a(5H)-yl)methoxy-d2)-8-methylpyrido[4,3-d]pyrimidin-7-yl)-5-ethynyl-6-fluoronaphthalen-2-amine]"
2,< 50,"[2H]C([2H])(Oc1nc(N2CCOC[C@H]3[C@H](F)[C@H]32)c2cnc(-c3cc(N)cc4ccc(F)c(C#C)c34)c(C)c2n1)[C@]12CC(=C)CN1CCC21CC1 [Example 442, 5-Ethynyl-6-fluoro-4-(4-((1S,7S,8S)-8-fluoro-5-oxa-2-azabicyclo[5.1.0]octan-2-yl)-8-methyl-2-(((R)-6′-methylenetetrahydrospiro[cyclopropane-1,1′-pyrrolizin]-7a′(5′H)-yl)methoxy-d2)pyrido[4,3-d]pyrimidin-7-yl)naphthalen-2-amine]"

# Same assay, conditions: Homo sapiens, NCI-H441, pERK HTRF, NCI-H441 cells (KRAS G12V)
row,IC50 [nM],Structure (SMILES)
1,500 to 10000,"[2H]C([2H])(Oc1nc(N2CCOC[C@@H]3[C@@H](F)[C@@H]32)c2cnc(-c3cccc4ccc(F)c(C#C)c34)c(F)c2n1)[C@@]12CCCN1C[C@H](F)C2 [Example 46, (1R,7R,8R)-2-(7-(8-ethynyl-7-fluoronaphthalen-1-yl)-8-fluoro-2-(((2R,7aS)-2-fluorotetrahydro-1H-pyrrolizin-7a(5H)-yl)methoxy-d2)pyrido[4,3-d]pyrimidin-4-yl)-8-fluoro-5-oxa-2-azabicyclo[5.1.0]octane]"
2,< 50,"[2H]C([2H])(Oc1nc(N2CCO[C@H]3[C@H](F)[C@H]32)c2cnc(-c3cc(N)cc4cc(F)c(F)c(C#C)c34)c(F)c2n1)[C@@]12CCCN1C[C@H](F)C2 [Example 38, 5-Ethynyl-6,7-difluoro-4-(8-fluoro-4-((1R,6S,7R)-7-fluoro-2-oxa-5-azabicyclo[4.1.0]heptan-5-yl)-2-(((2R,7aS)-2-fluorotetrahydro-1H-pyrrolizin-7a(5H)-yl)methoxy-d2)pyrido[4,3-d]pyrimidin-7-yl)naphthalen-2-amine]"
3,< 50,"[2H]C([2H])([2H])Oc1c(C#N)ccc2cc(N)cc(-c3ncc4c(N5CCOC[C@H]6[C@H](F)[C@H]65)nc(OC([2H])([2H])[C@@]56CCCN5C[C@H](F)C6)nc4c3F)c12 [Example 81, 6-Amino-8-(8-fluoro-4-((1S,7S,8S)-8-fluoro-5-oxa-2-azabicyclo[5.1.0]octan-2-yl)-2-(((2R,7aS)-2-fluorotetrahydro-1H-pyrrolizin-7a(5H)-yl)methoxy-d2)pyrido[4,3-d]pyrimidin-7-yl)-1-(methoxy-d3)-2-naphthonitrile]"

# Same assay, conditions: cellular pERK (Thr202/Tyr204) HTRF, NCI-H441 cells
row,IC50 [nM],Structure (SMILES)
1,< 50,"[2H]C([2H])(Oc1nc(N2CCOC[C@H]3[C@H](F)[C@H]32)c2cc(Cl)c(-c3cc(N)cc4ccc(F)c(C#C)c34)c(F)c2n1)[C@@]12CCCN1C[C@H](F)C2 [Example 354, 4-(6-chloro-8-fluoro-4-((1S,7S,8S)-8-fluoro-5-oxa-2-azabicyclo[5.1.0]octan-2-yl)-2-(((2R,7aS)-2-fluorotetrahydro-1H-pyrrolizin-7a(5H)-yl)methoxy-d2)quinazolin-7-yl)-5-ethynyl-6-fluoronaphthalen-2-amine]"
